# Measurements published in patent US20260297129A1, “PEPTIDES AS SELECTIVE IL-23 RECEPTOR INHIBITORS” (SANOFI, priority 2023, published 2026).
# Read-outs that look alike come from different tables or passages of the source. Numbered stars: 1 amine (or outer) side, 2 acyl side, 3 side chain; on linkers, the order of the positions; unused ones are H or OH. Bridge positions count the residues as written; N and C are the ends. Square brackets hold non-standard residues; d marks the D form. Peptide text beside a SMILES is read from it. * marks the point of attachment. Lys(Me,(CH2)4NMe(CH2)5CO) = CN(CCCCCC(=O)[*:3])CCCCN(C)CCCC[C@H](N[*:1])C(=O)[*:2]; Lys(Me,(CH2)4NMe(CH2)4CO) = CN(CCCCC(=O)[*:3])CCCCN(C)CCCC[C@H](N[*:1])C(=O)[*:2]; Trp(7-Me) = Cc1cccc2c(C[C@H](N)C(=O)O)c[nH]c12; Trp(1-Me) = Cn1cc(C[C@H](N)C(=O)O)c2ccccc21; αMeLys(Me2) = CN(C)CCCC[C@](C)(N)C(=O)O; 2Nal = N[C@@H](Cc1ccc2ccccc2c1)C(=O)O; 3Pal = N[C@@H](Cc1cccnc1)C(=O)O; Aun = NCCCCCCCCCCC(=O)O; Thp = NC1(C(=O)O)CCOCC1; Me2NCH2CH2 = CN(C)CC*; Aib = CC(C)(N)C(=O)O; Sar = CNCC(=O)O
# Key:
# [1] = Solubility of peptide compounds in buffer formulations (Table 5); assay type: physicochemical; settings: target 1 mg/ml
# Experimental: Prior to the solubility measurement of a peptide batch, its purity was determined through UHPLC/MS method A.
# For solubility testing the target concentration was 1 mg pure compound/ml. Therefore, solutions from solid samples were prepared in a buffer system at a concentration of 1 mg/mL compound. The solid samples were obtained by drying down aliquots of a freshly prepared dimethyl sulfoxide stock solution using a THERMO SPEEDVAC vacuum centrifuge. The dry down time was 3 hours.
# The following buffer systems were applied: • Solubility buffer system A) 50 mM HCl pH 1.2 • Solubility buffer system B) 50 mM phosphate buffer pH 6.5 • Solubility buffer system C) 50 mM phosphate buffer pH 7.4 • UHPLC-UV was performed using analytical method A after 2 hours of gentle agitation from the filtered (0.45 μm filter plates) solutions, which were obtained by 10 mins of centrifugation forced filtration at 1500 RCF (relative centrifugal acceleration).
# The solubility was determined by the comparison of the UV peak area of 2 μL-injections of a buffered sample diluted 1:10 with a standard curve of a dimethyl sulfoxide reference sample of known concentration. The different extinction coefficients were taken into account for the calculation.
# [2] = Protease stability in simulated intestinal fluids (FaSSIF) (Table 7); assay type: in vitro ADME; settings: fassif with pancreatin, 37° C.; for remaining at 1 h, 1 µM: 60 min, read-out: Remaining percentage of peptide compound, FaSSIF 60 (min); for remaining at 2 h, 1 µM: 120 min, read-out: Remaining percentage of peptide compound, FaSSIF 120 (min); for remaining at 4 h, 1 µM: 240 min, read-out: Remaining percentage of peptide compound, FaSSIF 240 (min)
# Experimental: (§1) Studies were carried out in simulated intestinal fluid (SIF) and simulated gastric fluid (SGF) to evaluate gastric stability of the peptide compounds disclosed herein.
# Similarly, the term “Pancreatin-SIF” refers to a solution of simulated intestinal fluid containing pancreatin whereas “SIF-media” refers to a solution of simulated intestinal fluid without pancreatin. Pancreatin-SIF was prepared by dissolving 1 mg Pancreatin (MP Biomedicals) in 10 mL SIF media concentrate (PROSENSE).
# (§2) Peptide compounds were first dissolved at 1 mM stock concentration in 0.01 HCl (+/−10% of DMSO) and were than diluted further with water to a stock concentration of 20 μM. Final peptide concentration in the incubation was 1 μM.
# (§3) To 76 μL of the Pepsin-SGF buffer, 4 μL of the 20 μM peptide stock solution was added and incubated at 37° C. At each timepoint (0, 60, 120 and 240 minutes) the reaction was quenched with addition of 80 μL Ethanol (0.1% HCOOH). The samples were centrifuged for 20 minutes and an aliquot of the supernatant 100 μL were transferred to a LoBind-MTP plate and analyzed by LCMS/MS. The peak area response was calculated at each time point for each test compound. As internal reference, the peak area response of the same test compound at T0 was calculated. The percentage remaining at each timepoint was calculated based on the peak area response ratio of the test compound at T0. Time 0 was set to 100%, and all later timepoints were calculated relative to time 0.
# [3] = test system: IL-23 induced STAT3 signaling (IL-23 receptor) in HEK-Blue IL-23 cells; assay: Inhibition of IL-23 induced STAT3 signaling in HEK-Blue IL-23 cells, SEAP reporter (Table 9); assay type: cell-based; settings: human IL23 0.25 ng/ml, overnight, read-out: Inhibition of IL-23 induced pSTAT3 (IC50 nM)
# Excerpt: HEK-Blue™ IL-23 cells (INVIVOGEN) are designed for the detection of bioactive human (hIL-23) and murine IL-23 (mIL-23) by monitoring the activation of the STAT3 pathway. Binding of IL-23 to its receptor on the surface of HEK-Blue™ IL-23 cells triggers a signaling cascade leading to the activation of STAT3 and the subsequent production of secreted embryonic alkaline phosphatase (SEAP). This can be readily assessed using QUANTI-Blue™ Solution, a SEAP detection reagent.
# HEK-Blue™ IL-23 cells were cultured as described by INVIVOGEN.
# On the first day of assay 10 μL of the HEK-BLUE IL23 cell suspension (final concentration: 10,000 cells/well) and 10 μl of serially diluted peptides solutions were dispensed into a 384-well assay plate. After pre-incubation of the reaction mixtures at 37° C./5% CO2/95% humidity for 60 minutes, 10 μl of the humanIL23 cytokine (final concentration: 0.25 ng/ml) was added to each well for the STAT3 signaling activation. The plate was incubated overnight at 37° C./5% CO2/95% humidity.
# On the second day 20 μl per well of QUANTI-BLUE detection solution (prepared according to the manufacture instruction) was dispensed into a new 384-well plate and followed by the transfer of 5 μl supernatant of the overnight incubated cell/sample mixtures. After incubation of 45 min at room temperature signals were measured with PHERASTAR (BMG) at OD 620-655 nm.
# Dose response data were fitted with XLfit.
# [4] = Protease stability in simulated gastric fluids (FaSSGF) (Table 7); assay type: in vitro ADME; settings: fassgf with pepsin, 60 min, 37° C., read-out: Remaining percentage of peptide compound, FaSSGF 60 (min)
# Experimental: as §1
# For clarification, the term “Pepsin-SGF” refers to a solution of simulated gastric fluid containing pepsin whereas “SGF media” refers to a solution of simulated gastric fluid without pepsin. Pepsin-SGF was prepared by dissolving 320 mg Pepsin (Merck Millipore) in 100 mL SGF media concentrate (PROSENSE).
# as §2
# as §3, with “(0,1%” for “(0.1%”
# as §3
# [5] = Buffer pH 1.1 (head; method: 50 mM HCl pH 1.2), 2 h agitation, read-out: Solubility, Buffer pH 1.1
# [6] = aqueous buffer, 50 mM phosphate buffer pH 6.5, 2 h agitation, read-out: Solubility, Buffer pH 6.5
# [7] = aqueous buffer, 50 mM phosphate buffer pH 7.4, 2 h agitation, read-out: Solubility, Buffer pH 7.4
SMILES,"solubility at 2 h [1, 5]","solubility at 2 h [1, 6]","solubility at 2 h [1, 7]","remaining at 1 h, 1 µM [2]","remaining at 2 h, 1 µM [2]","remaining at 4 h, 1 µM [2]",IC50 [3],"remaining at 1 h, 1 µM [4]"
"CC(=O)NCCCC[C@@H]1NC(=O)[C@H](Cc2c[nH]c3ccccc23)NC(=O)CCCCN(C)CCCCN(C)CCCC[C@@H](C(=O)N[C@@H](CO)C(=O)N[C@@H](Cc2cccnc2)C(=O)N(C)CC(N)=O)NC(=O)C(C)(C)NC(=O)[C@H](Cc2ccc3ccccc3c2)NC(=O)[C@H](Cc2ccc(OCCN(C)C)cc2)NC(=O)C2(CCOCC2)NC1=O [compound 42] (WK(Ac)[Thp]Y(Me2NCH2CH2)[2Nal][Aib][Lys(Me,(CH2)4NMe(CH2)4CO)]S[3Pal][Sar]-NH2; lactam N-7)",≥ 1010 µg/mL,≥ 1030 µg/mL,≥ 1040 µg/mL,59%,42%,23%,4.37 nM,100%
"CC(=O)NCCCC[C@@H]1NC(=O)[C@H](Cc2c[nH]c3c(C)cccc23)NC(=O)CCCCCN(C)CCCCN(C)CCCC[C@@H](C(=O)NCC(=O)N[C@@H](Cc2cccnc2)C(=O)N(C)CC(N)=O)NC(=O)C(C)(C)NC(=O)[C@H](Cc2ccc3ccccc3c2)NC(=O)[C@H](Cc2ccc(OCCN(C)C)cc2)NC(=O)C2(CCOCC2)NC1=O [compound 27] ([Trp(7-Me)]K(Ac)[Thp]Y(Me2NCH2CH2)[2Nal][Aib][Lys(Me,(CH2)4NMe(CH2)5CO)]G[3Pal][Sar]-NH2; lactam N-7)",≥ 980 µg/mL,≥ 920 µg/mL,≥ 960 µg/mL,97%,94%,94%,3.12 nM,100%
CC(=O)NCCCC[C@@H]1NC(=O)[C@H](Cc2c[nH]c3c(C)cccc23)NC(=O)CCCCCCCCCCNC(=O)CC[C@@H](C(=O)N[C@@H](CC(N)=O)C(=O)N[C@@H](Cc2cccnc2)C(=O)N(C)CC(N)=O)NC(=O)[C@](C)(CCCCN(C)C)NC(=O)[C@H](Cc2ccc3ccccc3c2)NC(=O)[C@H](Cc2ccc(OCCN(C)C)cc2)NC(=O)C2(CCOCC2)NC1=O [compound 21] ([Aun][Trp(7-Me)]K(Ac)[Thp]Y(Me2NCH2CH2)[2Nal][αMeLys(Me2)]EN[3Pal][Sar]-NH2; lactam N-8),≥ 1150 µg/mL,≥ 1170 µg/mL,≥ 1010 µg/mL,97%,100%,101%,0.27 nM,91%
"Cc1cccc2c(C[C@@H]3NC(=O)CCCCCN(C)CCCCN(C)CCCC[C@@H](C(=O)NCC(=O)N[C@@H](Cc4cccnc4)C(=O)N(C)CC(N)=O)NC(=O)C(C)(C)NC(=O)[C@H](Cc4ccc5ccccc5c4)NC(=O)[C@H](Cc4ccc(OCCN(C)C)cc4)NC(=O)C4(CCOCC4)NC(=O)[C@H](CCC(N)=O)NC3=O)c[nH]c12 [compound 26] ([Trp(7-Me)]Q[Thp]Y(Me2NCH2CH2)[2Nal][Aib][Lys(Me,(CH2)4NMe(CH2)5CO)]G[3Pal][Sar]-NH2; lactam N-7)",≥ 1000 µg/mL,≥ 1010 µg/mL,≥ 890 µg/mL,92%,88%,87%,2.32 nM,95%
"CC(=O)NCCCC[C@@H]1NC(=O)[C@H](Cc2c[nH]c3c(C)cccc23)NC(=O)CCCCN(C)CCCCN(C)CCCC[C@@H](C(=O)N[C@@H](CC(N)=O)C(=O)N[C@@H](Cc2cccnc2)C(=O)N(C)CC(N)=O)NC(=O)[C@](C)(CCCCN(C)C)NC(=O)[C@H](Cc2ccc3ccccc3c2)NC(=O)[C@H](Cc2ccc(OCCN(C)C)cc2)NC(=O)C2(CCOCC2)NC1=O [compound 47] ([Trp(7-Me)]K(Ac)[Thp]Y(Me2NCH2CH2)[2Nal][αMeLys(Me2)][Lys(Me,(CH2)4NMe(CH2)4CO)]N[3Pal][Sar]-NH2; lactam N-7)",≥ 1200 µg/mL,≥ 1150 µg/mL,≥ 1170 µg/mL,97%,91%,91%,1.2 nM,98%
"CN(C)CCOc1ccc(C[C@@H]2NC(=O)C3(CCOCC3)NC(=O)[C@H](CCC(N)=O)NC(=O)[C@H](Cc3cn(C)c4ccccc34)NC(=O)CCCCCN(C)CCCCN(C)CCCC[C@@H](C(=O)N[C@@H](CC(N)=O)C(=O)N[C@@H](Cc3cccnc3)C(=O)N(C)CC(N)=O)NC(=O)C(C)(C)NC(=O)[C@H](Cc3ccc4ccccc4c3)NC2=O)cc1 [compound 33] ([Trp(1-Me)]Q[Thp]Y(Me2NCH2CH2)[2Nal][Aib][Lys(Me,(CH2)4NMe(CH2)5CO)]N[3Pal][Sar]-NH2; lactam N-7)",≥ 1000 µg/mL,≥ 1120 µg/mL,≥ 950 µg/mL,97%,94%,94%,0.8 nM,100%
